Measured values from US11713307B2, “Heteroaryl-biphenyl amides for the treatment of PD-L1 diseases” (CHEMOCENTRYX, INC., priority 2019, dated 2023).

The compounds below were run against human PD-L1 (Homo sapiens (Human), UniProt Q9NZQ7) (assay: Enzyme-Linked Immunosorbent Assay—ELISA (PD-1/PD-L1 binding)). Settings: plates coated with human PD-L1; Human PD-1 and biotin added; absorbance at 450 nm.
Protocol: 96 Well plates were coated with 1 μg/mL of human PD-L1 (obtained from R&D) in PBS overnight at 4° C. The wells were then blocked with 2% BSA in PBS (W/V) with 0.05% TWEEN-20 for 1 hour at 37° C. The plates were washed 3 times with PBS/0.05% TWEEN-20 and the compounds were serial diluted (1:5) in dilution medium and added to the ELISA plates. Human PD-1 and biotin 0.3 μg/mL (ACRO Biosystems) were added and incubated for 1 hour at 37° C. then washed 3 times with PBS/0.05% TWEEN-20. A second block was performed with 2% BSA in PBS (W/V)/0.05% TWEEN-20 for 10 min at 37° C. and the plates were washed 3 times with PBS/0.05% TWEEN-20. Streptavidin-HRP was added for 1 hour at 37° C. then the plates were washed 3 times with PBS/0.05% TWEEN-20. TMB substrate was added and reacted for 20 min at 37° C. A stop solution (2 N aqueous H2SO4) was added. The absorbance was read at 450 nm using a micro-plate spectrophotometer. The results are shown in Table 1: IC50 values are provided as follows: from 1000 to 10,000 nM (+); from 10 up to 1000 nM (++); less than 10 nM (+++).

human PD-L1, sequence (Q9NZQ7 19-239): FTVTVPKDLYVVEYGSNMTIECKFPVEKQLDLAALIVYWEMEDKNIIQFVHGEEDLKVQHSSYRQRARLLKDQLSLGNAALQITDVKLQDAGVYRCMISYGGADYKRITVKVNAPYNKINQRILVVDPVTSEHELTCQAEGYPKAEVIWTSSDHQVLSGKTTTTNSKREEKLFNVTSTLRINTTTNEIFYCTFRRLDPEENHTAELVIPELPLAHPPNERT

Compound	IC50 [nM]
COc1nc(-c2cccc(-c3cccc(NC(=O)c4cn(C)c(=O)n(C)c4=O)c3C)c2Cl)ccc1CNCCC(C)(C)O [Compound 1.023]	< 10
COc1nc(-c2cccc(-c3cccc(NC(=O)c4cn(C)c(=O)n(C)c4=O)c3Cl)c2Cl)ccc1CNC[C@@H](O)CO [Compound 1.030]	< 10
COc1nc(-c2cccc(-c3cccc(NC(=O)c4cn(C)c(=O)n(C)c4=O)c3Cl)c2Cl)ccc1CN(C)C[C@@H]1CCC(=O)N1 [Compound 1.058]	10 to 1000
COc1cc(-c2cccc(-c3cccc(NC(=O)c4cn(C)c(=O)n(C)c4=O)c3C)c2C)cnc1CNCCO [Compound 1.010]	< 10
COc1nc(-c2cccc(-c3cccc(NC(=O)c4cn(C)c(=O)n(C)c4=O)c3Cl)c2Cl)cnc1CN[C@H]1CCOC[C@H]1O [Compound 1.004]	< 10
Cn1cc(C(=O)Nc2cccc(-c3cccc(-c4ccc(CNC[C@@H]5CCC(=O)N5)c(O)n4)c3Cl)c2Cl)c(=O)n(C)c1=O [Compound 1.033]	10 to 1000
COc1nc(-c2cccc(-c3cccc(NC(=O)c4cn(C)c(=O)n(C)c4=O)c3C)c2Cl)ccc1CNC[C@@H]1CCC(=O)N1C [Compound 1.043]	< 10
COc1nc(-c2cccc(-c3cccc(NC(=O)c4cn(C)c(=O)n(C)c4=O)c3Cl)c2Cl)ccc1CNC[C@@H](C)O [Compound 1.032]	< 10
COc1nc(-c2cccc(-c3cccc(NC(=O)c4cn(C)c(=O)n(C)c4=O)c3C)c2Cl)ccc1CN1CC(C(C)(C)O)C1 [Compound 1.041]	< 10
COc1nc(-c2cccc(-c3cccc(NC(=O)c4cn(C)c(=O)n(C)c4=O)c3C)c2Cl)ccc1CNCC(C)(C)O [Compound 1.055]	< 10
COc1nc(-c2cccc(-c3cccc(NC(=O)c4cn(C)c(=O)n(C)c4=O)c3C)c2Cl)ccc1CN[C@H](C)CO [Compound 1.020]	< 10
COc1nc(-c2cccc(-c3cccc(NC(=O)c4cn(C)c(=O)n(C)c4=O)c3C)c2Cl)ccc1CN[C@@H]1CCOC[C@H]1O [Compound 1.014]	< 10
COc1nc(-c2cccc(-c3cccc(NC(=O)c4cn(C)c(=O)n(C)c4=O)c3C)c2F)ccc1CN[C@@H]1CCOC[C@@H]1O [Compound 1.024]	< 10
COc1nc(-c2cccc(-c3cccc(NC(=O)c4cn(C)c(=O)n(C)c4=O)c3C)c2Cl)ccc1CN1CC[C@@](C)(O)C1 [Compound 1.048]	< 10
COc1nc(-c2cccc(-c3cccc(NC(=O)c4cn(C)c(=O)n(C)c4=O)c3C)c2Cl)ccc1CN[C@@H]1CCOC[C@@H]1O [Compound 1.008]	< 10
COc1nc(-c2cccc(-c3cccc(NC(=O)c4cn(C)c(=O)n(C)c4=O)c3C)c2Cl)ccc1CNCCO [Compound 1.056]	< 10
COc1nc(-c2cccc(-c3cccc(NC(=O)c4cn(C)c(=O)n(C)c4=O)c3C)c2Cl)ccc1CN1CCC(O)CC1 [Compound 1.046]	< 10
COc1nc(-c2cccc(-c3cccc(NC(=O)c4cn(C)c(=O)n(C)c4=O)c3C)c2Cl)ccc1CN(C)CCO [Compound 1.052]	< 10
COc1nc(-c2cccc(-c3cccc(NC(=O)c4cn(C)c(=O)n(C)c4=O)c3F)c2Cl)ccc1CNC[C@@H]1CCC(=O)N1 [Compound 1.059]	< 10
COc1nc(-c2cccc(-c3cccc(NC(=O)c4cn(C)c(=O)n(C)c4=O)c3C)c2Cl)ccc1CNCC(C)(C)C(N)=O [Compound 1.040]	< 10
COc1nc(-c2cccc(-c3cccc(NC(=O)c4cn(C)c(=O)n(C)c4=O)c3Cl)c2Cl)ccc1CNCCCO [Compound 1.036]	< 10
COc1nc(-c2cccc(-c3cccc(NC(=O)c4cn(C)c(=O)n(C)c4=O)c3C)c2C)ccc1CNC[C@@H]1CCC(=O)N1 [Compound 1.062]	< 10
COc1nc(-c2cccc(-c3cccc(NC(=O)c4cn(C)c(=O)n(C)c4=O)c3C)c2Cl)ccc1CNC[C@@H]1CC(C)(C)C(=O)N1 [Compound 1.016]	< 10
COc1nc(-c2cccc(-c3cccc(NC(=O)c4cn(C)c(=O)n(C)c4=O)c3C)c2Cl)ccc1CN[C@@H]1CCCC[C@@H]1O [Compound 1.017]	< 10
COc1nc(-c2cccc(-c3cccc(NC(=O)c4cn(C)c(=O)n(C)c4=O)c3C)c2Cl)ccc1CN[C@@H]1COC[C@@H]1O [Compound 1.012]	< 10
COc1cc(-c2cccc(-c3cccc(NC(=O)c4cn(C)c(=O)n(C)c4=O)c3C)c2Cl)cnc1CN[C@@H]1CCOC[C@@H]1O [Compound 1.009]	< 10
COc1nc(-c2cccc(-c3cccc(NC(=O)c4cn(C)c(=O)n(C)c4=O)c3C)c2Cl)ccc1CN1CC(C)(O)C1 [Compound 1.038]	< 10
COc1nc(-c2cccc(-c3cccc(NC(=O)c4cn(C)c(=O)n(C)c4=O)c3)c2Cl)ccc1CNC[C@@H]1CCC(=O)N1 [Compound 1.061]	< 10

Continued, values first:

IC50 [nM]	Compound
< 10	COc1nc(-c2cccc(-c3cccc(NC(=O)c4cn(C)c(=O)n(C)c4=O)c3Cl)c2Cl)cnc1CN1CC(O)C1 [Compound 1.098]
< 10	CCc1nc(-c2cccc(-c3cccc(NC(=O)c4cn(C)c(=O)n(C)c4=O)c3Cl)c2Cl)ccc1CN1CC(C(=O)O)C1 [Compound 1.071]
< 10	COc1nc(-c2cccc(-c3cccc(NC(=O)c4cn(C)c(=O)n(C)c4=O)c3Cl)c2F)ccc1CNC[C@@H]1CCC(=O)N1 [Compound 1.063]
< 10	COc1nc(-c2cccc(-c3cccc(NC(=O)c4cn(C)c(=O)n(C)c4=O)c3Cl)c2Cl)ccc1CN1CC(O)C1 [Compound 1.090]
10 to 1000	COc1cc(-c2cccc(-c3cccc(NC(=O)c4cn(C)c(=O)n(C)c4=O)c3Cl)c2Cl)ncc1CN1CC(O)C1 [Compound 1.080]
< 10	COc1cc(-c2cccc(-c3cccc(NC(=O)c4cn(C)c(=O)n(C)c4=O)c3Cl)c2Cl)ncc1CN1CC(C)(C(=O)O)C1 [Compound 1.083]
< 10	COc1nc(-c2cccc(-c3cccc(NC(=O)c4cn(C)c(=O)n(C)c4=O)c3C)c2Cl)ccc1CN1CC(C(=O)O)C1 [Compound 1.082]
< 10	COc1nc(-c2cccc(-c3cccc(NC(=O)c4cn(C)c(=O)n(C)c4=O)c3Cl)c2)ccc1CNC[C@@H]1CCC(=O)N1 [Compound 1.067]
< 10	COc1nc(-c2cccc(-c3cccc(NC(=O)c4c[nH]c(=O)n(C)c4=O)c3C)c2Cl)ccc1CNC[C@@H]1CCC(=O)N1 [Compound 1.065]
< 10	COc1nc(-c2cccc(-c3cccc(NC(=O)c4cn(C)c(=O)n(C)c4=O)c3Cl)c2Cl)cnc1CN1CCCC[C@@H]1C(=O)O [Compound 1.094]
< 10	COc1nc(-c2cccc(-c3cccc(NC(=O)c4cn(C)c(=O)n(C)c4=O)c3C)c2Cl)cnc1CNC[C@@H]1CCC(=O)N1 [Compound 1.079]
< 10	COc1nc(-c2cccc(-c3cccc(NC(=O)c4cn(C)c(=O)n(C)c4=O)c3Cl)c2Cl)cnc1CN1CC2(CCC(=O)N2)C1 [Compound 1.101]
< 10	COc1nc(-c2cccc(-c3cccc(NC(=O)c4cn(C)c(=O)n(C)c4=O)c3Cl)c2C)ccc1CNC[C@@H]1CCC(=O)N1 [Compound 1.068]
< 10	CCc1nc(-c2cccc(-c3cccc(NC(=O)c4cn(C)c(=O)n(C)c4=O)c3Cl)c2Cl)cnc1CNC[C@@H]1CCC(=O)N1 [Compound 1.077]
< 10	COc1nc(-c2cccc(-c3cccc(NC(=O)c4cn(C)c(=O)n(C)c4=O)c3Cl)c2Cl)ccc1CN1CC(C)(C(=O)O)C1 [Compound 1.085]
